Patent publication US20250248979A1, “NOVEL GPX4 INHIBITORS AND USES THEREOF” (THE TRUSTEES OF COLUMBIA UNIVERSITY IN THE CITY OF NEW YORK, priority 2022, published 2025)

tested on: HT-1080 cells; assay: Cellular dose response assay, HT-1080 with and without Fer-1; assay type: cell-based, human; conditions: compounds alone; Table 7; read-out: IC50 (uM) HT1080^a
From the text: (§1) HT-1080 (human [Homo sapiens] […] fibrosarcoma), A-673 (human [Homo sapiens] […] Ewing's sarcoma), and SK-HEP-1 (human [Homo sapiens] […] hepatic adenocarcinoma), cells were obtained from ATCC. Huh7 (human [Homo sapiens] […] hepatocellular carcinoma), HLF (human [Homo sapiens] […] hepatocellular carcinoma), HepG2 (human [Homo sapiens] […] hepatocellular carcinoma), cells were obtained from the Cancer Cell Bank at Columbia University Irving Medical Center. HT-1080, A-673, Huh-7, and HLF cells were grown in Dulbecco's Modified Eagle Medium (DMEM) supplemented with 10% heat inactivated fetal bovine serum (HI-FBS), 1% non-essential amino acids, and 1% penicillin streptomycin. HepG2 and SK-HEP-1 cells were grown in Eagle's Minimum Essential Medium (EMEM) supplemented with 10% HI-FBS, and 1% penicillin-streptomycin. All cells were cultured at 37° C. and 5% CO2.
(§2) HT-1080, HepG2, Huh7, HLF, and SK-HEP-1 cells were seeded into opaque white 384-well plates at 1500 cells per well then incubated at 37° C. with 5% CO2 overnight. The next day, compounds of interest were dissolved in DMSO and 12-point 2-fold dilution series were prepared with and without Fer-1. Cells were treated in triplicate (final DMSO concentration of 0.4% in all wells, including DMSO-only control wells) and incubated for a further 48 hours at 37° C. and 5% CO2. Cell viability was evaluated using CellTiter-Glo (Promega G7573) and luminescence was recorded on a Victor 5 plate reader. Data were analyzed in GraphPad Prism 9 and error bars represent standard deviation values for three technical replicates in a representative experiment.

IC50	SMILES
0.7 µM	Cn1nc(C(=O)NC(C)(C)COC(=O)CBr)c2ccccc21 [QW-365]

same assay, conditions: compounds alone; read-out: IC50 (μM) HT1080^a

IC50	SMILES
> 400 µM	O=C(Nc1c[nH]c2ccccc12)n1ccnc1 [QW-065]

same assay, conditions: compounds and fer-1 1.0 μM; read-out: IC50 (μM) HT1080^b

IC50	SMILES
> 400 µM	O=C(Nc1c[nH]c2ccccc12)n1ccnc1 [QW-065]

same assay, conditions: ferroptosis selectivity, IC50 with Fer-1 / IC50

SMILES	Selectivity
C=CC(=O)OCC(C)(C)NC(=O)c1nn(Cc2ccc(Cl)cc2)c2cc(-c3ccc(OC)c(Cl)c3)ccc12 [QW-831]	1.1
COc1ccc(-c2ccc3c(C(=O)NC(C)(C)COC(=O)C#C[Si](C)(C)C)nn(Cc4ccc(Cl)cc4)c3c2)cc1Cl [QW-832]	37.4
CSc1ccc(-c2ccc3c(C(=O)NC(C)(C)COC(=O)CCl)nn(Cc4ccc(Cl)cc4)c3c2)cc1Cl [QW-847]	9.6
COc1ccc(-c2cc(Cl)cc(Cn3nc(C(=O)NC(C)(C)COC(=O)CCl)c4ccc(-c5ccc(OC)c(Cl)c5)cc43)c2)cc1Cl [QW-853]	56.8
CC(C)Oc1ccc(-c2ccc3c(C(=O)NC(C)(C)COC(=O)CCl)nn(Cc4cc(Cl)cc(Cl)c4)c3c2)cc1Cl [QW-857]	>790
COc1ccc(-c2ccc3c(C(=O)NC(C)(C)COC(=O)CCl)nn(Cc4ccc(C(F)(F)F)cc4)c3c2)cc1Cl [QW-873]	3.4
CC(C)(COC(=O)CCl)NC(=O)c1nn(Cc2ccc(C(F)(F)F)cc2)c2cc(-c3ccc(N4CCOCC4)c(Cl)c3)ccc12 [QW-874]	1.7
CC(C)(COC(=O)CCl)NC(=O)c1nn(Cc2ccc(-c3ccc(N4CCOCC4)c(Cl)c3)cc2)c2cc(-c3ccc(N4CCOCC4)c(Cl)c3)ccc12 [QW-883]	371.4
COc1ccc(-c2cc(Cl)cc(Cn3nc(C(=O)NC(C)(C)C(C)(C)OC(=O)CCl)c4ccc(-c5ccc(OC)c(Cl)c5)cc43)c2)cc1Cl [QW-888]	2.0

same assay, conditions: read-out: IC50 against HT1080 cell lines

SMILES	IC50
CC(C)Oc1ccc(-c2ccc3c(C(=O)NC(C)(C)COC(=O)CCl)nn(Cc4cc(Cl)cc(Cl)c4)c3c2)cc1Cl [QW-857]	0.0506 µM

same assay, conditions: with Fer-1; Table 10; read-out: IC50 (μM) HT1080 + Fer-1

SMILES	IC50
C=CC(=O)OCC(C)(C)NC(=O)c1nn(Cc2ccc(Cl)cc2)c2cc(-c3ccc(OC)c(Cl)c3)ccc12 [QW-831]	13 µM
COc1ccc(-c2ccc3c(C(=O)NC(C)(C)COC(=O)C#C[Si](C)(C)C)nn(Cc4ccc(Cl)cc4)c3c2)cc1Cl [QW-832]	63.6 µM
CSc1ccc(-c2ccc3c(C(=O)NC(C)(C)COC(=O)CCl)nn(Cc4ccc(Cl)cc4)c3c2)cc1Cl [QW-847]	98.4 µM
COc1ccc(-c2cc(Cl)cc(Cn3nc(C(=O)NC(C)(C)COC(=O)CCl)c4ccc(-c5ccc(OC)c(Cl)c5)cc43)c2)cc1Cl [QW-853]	21 µM
CC(C)Oc1ccc(-c2ccc3c(C(=O)NC(C)(C)COC(=O)CCl)nn(Cc4cc(Cl)cc(Cl)c4)c3c2)cc1Cl [QW-857]	> 40 µM
COc1ccc(-c2ccc3c(C(=O)NC(C)(C)COC(=O)CCl)nn(Cc4ccc(C(F)(F)F)cc4)c3c2)cc1Cl [QW-873]	26.8 µM
CC(C)(COC(=O)CCl)NC(=O)c1nn(Cc2ccc(C(F)(F)F)cc2)c2cc(-c3ccc(N4CCOCC4)c(Cl)c3)ccc12 [QW-874]	49 µM
CC(C)(COC(=O)CCl)NC(=O)c1nn(Cc2ccc(-c3ccc(N4CCOCC4)c(Cl)c3)cc2)c2cc(-c3ccc(N4CCOCC4)c(Cl)c3)ccc12 [QW-883]	20.8 µM
COc1ccc(-c2cc(Cl)cc(Cn3nc(C(=O)NC(C)(C)C(C)(C)OC(=O)CCl)c4ccc(-c5ccc(OC)c(Cl)c5)cc43)c2)cc1Cl [QW-888]	49.6 µM

same assay, conditions: with fer-1; Table 7; read-out: IC50 (uM) HT1080^b

IC50	SMILES
12.2 µM	Cn1nc(C(=O)NC(C)(C)COC(=O)CBr)c2ccccc21 [QW-365]

same assay, conditions: without Fer-1; Table 10; read-out: IC50 (μM) HT1080

SMILES	IC50
C=CC(=O)OCC(C)(C)NC(=O)c1nn(Cc2ccc(Cl)cc2)c2cc(-c3ccc(OC)c(Cl)c3)ccc12 [QW-831]	12 µM
COc1ccc(-c2ccc3c(C(=O)NC(C)(C)COC(=O)C#C[Si](C)(C)C)nn(Cc4ccc(Cl)cc4)c3c2)cc1Cl [QW-832]	1.7 µM
CSc1ccc(-c2ccc3c(C(=O)NC(C)(C)COC(=O)CCl)nn(Cc4ccc(Cl)cc4)c3c2)cc1Cl [QW-847]	10.2 µM
COc1ccc(-c2cc(Cl)cc(Cn3nc(C(=O)NC(C)(C)COC(=O)CCl)c4ccc(-c5ccc(OC)c(Cl)c5)cc43)c2)cc1Cl [QW-853]	0.37 µM
COc1ccc(-c2ccc3c(C(=O)NC(C)(C)COC(=O)CCl)nn(Cc4ccc(C(F)(F)F)cc4)c3c2)cc1Cl [QW-873]	8 µM
CC(C)(COC(=O)CCl)NC(=O)c1nn(Cc2ccc(C(F)(F)F)cc2)c2cc(-c3ccc(N4CCOCC4)c(Cl)c3)ccc12 [QW-874]	28.3 µM
COc1ccc(-c2cc(Cl)cc(Cn3nc(C(=O)NC(C)(C)C(C)(C)OC(=O)CCl)c4ccc(-c5ccc(OC)c(Cl)c5)cc43)c2)cc1Cl [QW-888]	24.5 µM

same assay, conditions: without Fer-1; Table 10; read-out: IC50 HT1080

IC50	SMILES
0.0564 µM	CC(C)(COC(=O)CCl)NC(=O)c1nn(Cc2ccc(-c3ccc(N4CCOCC4)c(Cl)c3)cc2)c2cc(-c3ccc(N4CCOCC4)c(Cl)c3)ccc12 [QW-883]

tested on: HepG2 cells; assay: Cellular dose response assay, HepG2; assay type: cell-based, human; conditions: compounds alone; Table 7; read-out: IC50 (uM) HEPG2^a
From the text: as §1, §2

IC50	SMILES
2.9 µM	Cn1nc(C(=O)NC(C)(C)COC(=O)CBr)c2ccccc21 [QW-365]

same assay, conditions: compounds alone; read-out: IC50 (μM) HEPG2^a

IC50	SMILES
> 400 µM	O=C(Nc1c[nH]c2ccccc12)n1ccnc1 [QW-065]

same assay, conditions: compounds and fer-1 1.0 μM; read-out: IC50 (μM) HEPG2^b

IC50	SMILES
> 400 µM	O=C(Nc1c[nH]c2ccccc12)n1ccnc1 [QW-065]

same assay, conditions: with fer-1; Table 7; read-out: IC50 (uM) HEPG2^b

IC50	SMILES
18.6 µM	Cn1nc(C(=O)NC(C)(C)COC(=O)CBr)c2ccccc21 [QW-365]

tested on: Huh7 cells; assay: Cellular dose response assay, Huh7; assay type: cell-based, human; conditions: compounds alone; Table 7; read-out: IC50 (uM) Huh7^a
From the text: as §1, §2

IC50	SMILES
0.8 µM	Cn1nc(C(=O)NC(C)(C)COC(=O)CBr)c2ccccc21 [QW-365]

same assay, conditions: with fer-1; Table 7; read-out: IC50 (uM) Huh7^b

IC50	SMILES
16.8 µM	Cn1nc(C(=O)NC(C)(C)COC(=O)CBr)c2ccccc21 [QW-365]

tested on: HLF cells; assay: Cellular dose response assay, HLF; assay type: cell-based, human; conditions: compounds alone; Table 7; read-out: IC50 (uM) HLF^a
From the text: as §1, §2

IC50	SMILES
0.5 µM	Cn1nc(C(=O)NC(C)(C)COC(=O)CBr)c2ccccc21 [QW-365]

same assay, conditions: with fer-1; Table 7; read-out: IC50 (uM) HLF^b

IC50	SMILES
8.8 µM	Cn1nc(C(=O)NC(C)(C)COC(=O)CBr)c2ccccc21 [QW-365]

tested on: SK-HEP-1 cells; assay: Cellular dose response assay, SK-HEP-1; assay type: cell-based, human; conditions: compounds alone; Table 7; read-out: IC50 (uM) SKHEP1^a
From the text: as §1, §2

IC50	SMILES
0.3 µM	Cn1nc(C(=O)NC(C)(C)COC(=O)CBr)c2ccccc21 [QW-365]

same assay, conditions: with fer-1; Table 7; read-out: IC50 (uM) SKHEP1^b

IC50	SMILES
12.1 µM	Cn1nc(C(=O)NC(C)(C)COC(=O)CBr)c2ccccc21 [QW-365]

target: T1, GPX4 (Homo sapiens, UniProt P36969); assay: GPX4 activity assay in cell lysates (NADPH-coupled); assay type: biochemical; set-up: endogenous in cells; host or cells: A-673 cell lysate; conditions: not given
T1 sequence (P36969 1-170 isoform P36969-2): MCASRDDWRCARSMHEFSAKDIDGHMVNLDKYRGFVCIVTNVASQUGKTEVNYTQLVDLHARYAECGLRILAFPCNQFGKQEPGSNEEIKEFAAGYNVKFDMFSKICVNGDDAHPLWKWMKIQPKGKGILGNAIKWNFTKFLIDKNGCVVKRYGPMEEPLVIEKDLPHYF
Outline: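 Native GPX4 in lysates of A-673 cells grown with 20 nM sodium selenite; lysate preincubated with compound 45 min at 37 °C in pH 8.0 buffer with 3 mM GSH, 0.5 mM NADPH and glutathione reductase. Reaction started with phosphatidylcholine hydroperoxide; NADPH consumption followed at 340 nm over 25 min; triplicates.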

SMILES	GPX4 inhibitory activity, result in words
CC(C)Oc1ccc(-c2ccc3c(C(=O)NC(C)(C)COC(=O)CCl)nn(Cc4cc(Cl)cc(Cl)c4)c3c2)cc1Cl [QW-857]	greater GPX4 inhibitory activity than QW-446 at 2.5 μM concentration

same assay, conditions: 2.5 μM; 4th generation

SMILES	GPX4% inhibition at 2.5 μM
C=CC(=O)OCC(C)(C)NC(=O)c1nn(Cc2ccc(Cl)cc2)c2cc(-c3ccc(OC)c(Cl)c3)ccc12 [QW-831]	32.6 ± 61.0%
COc1ccc(-c2ccc3c(C(=O)NC(C)(C)COC(=O)C#C[Si](C)(C)C)nn(Cc4ccc(Cl)cc4)c3c2)cc1Cl [QW-832]	58.9 ± 9.0%
CSc1ccc(-c2ccc3c(C(=O)NC(C)(C)COC(=O)CCl)nn(Cc4ccc(Cl)cc4)c3c2)cc1Cl [QW-847]	88.5 ± 16.1%
COc1ccc(-c2cc(Cl)cc(Cn3nc(C(=O)NC(C)(C)COC(=O)CCl)c4ccc(-c5ccc(OC)c(Cl)c5)cc43)c2)cc1Cl [QW-853]	45.5 ± 34.3%
CC(C)Oc1ccc(-c2ccc3c(C(=O)NC(C)(C)COC(=O)CCl)nn(Cc4cc(Cl)cc(Cl)c4)c3c2)cc1Cl [QW-857]	66.7 ± 26.2%
COc1ccc(-c2ccc3c(C(=O)NC(C)(C)COC(=O)CCl)nn(Cc4ccc(C(F)(F)F)cc4)c3c2)cc1Cl [QW-873]	45.6 ± 39.7%
CC(C)(COC(=O)CCl)NC(=O)c1nn(Cc2ccc(C(F)(F)F)cc2)c2cc(-c3ccc(N4CCOCC4)c(Cl)c3)ccc12 [QW-874]	57.5 ± 24.5%
CC(C)(COC(=O)CCl)NC(=O)c1nn(Cc2ccc(-c3ccc(N4CCOCC4)c(Cl)c3)cc2)c2cc(-c3ccc(N4CCOCC4)c(Cl)c3)ccc12 [QW-883]	41.1 ± 40.9%
COc1ccc(-c2cc(Cl)cc(Cn3nc(C(=O)NC(C)(C)C(C)(C)OC(=O)CCl)c4ccc(-c5ccc(OC)c(Cl)c5)cc43)c2)cc1Cl [QW-888]	78.7 ± 5.0%

same assay, conditions: 200 μM; generation 2

GPX4% inhibition at 200 (μM)	SMILES
94.5 ± 4.5%	Cn1nc(C(=O)NC(C)(C)COC(=O)CBr)c2ccccc21 [QW-365]

same assay, conditions: 200 μM; mean ± s.d., n = 3

GPX4% inhibition at 200 (μM)	SMILES
32.4 ± 2.4%	O=C(Nc1c[nH]c2ccccc12)n1ccnc1 [QW-065]
